Laboratory results: patent US20080287375A1, “Selective Glycosidase Inhibitors, Methods of Making Inhibitors, and Uses Thereof” (SIMON FRASER UNIVERSITY, priority 2005, published 2008)

How the values were obtained:
[1] = test system: O-GlcNAc modified proteins in rat tissues; assay: Western blot of O-GlcNAc modified proteins in tissues of rats after tail vein injection of varying doses; assay type: in vivo
Procedure: Four rats were treated by tail vein injection of different doses of inhibitor 9c or a buffer control. Two sequential injections were performed approximately 18 hours apart and the rats were then sacrificed 24 hours after the first injection. Western blot analyses using an α-O-GlcNAc antibody (CTD110.6) clearly indicate that the inhibitor 9c easily gains access into a variety of tissues including brain (A), muscle (B) and liver (C) and doses as low as 50 mg kg-1 are almost enough to elicit a maximal increase in O-GlcNAc levels.
Eight give-week old healthy Sprague-Dawley rats (Charles River) were caged in pairs. The animals were allowed to acclimatize to their new surroundings at the Simon Fraser University Animal Care Facilities (SFU ACF) for one week. At 3:00 pm, four rats were given a tail vein injection of 400 μl of inhibitor 9c dissolved in PBS buffer (pH 7.4) at a dose of 50 mg kg^−1. The remaining four rats were given a tail vein injection of 400 μl of PBS as a control. All solutions were pre-sterilized through a 0.2 μm filter (Millipore) and injected with 0.5 mL syringes containing a 28 gauge×0.5″ needle (Terumo) as bolus over 10 seconds. Food was withdrawn at approximately 11:00 pm. At 8:30 am the following morning, the rats were given a second injection. After three hours the rats were anesthetized with isoflurane and a 100 μL blood sample was taken from the jugular vein to measure the fasting blood glucose levels. An intravenous glucose tolerance test (IVGTT) was then performed. A 0.5 mL injection of a 50% w/v solution of glucose dissolved in PBS (pre-sterilized) was administered via the tail vein over 30 seconds. At 10, 20, 30, 40, 60, and 90 minutes after the injection of glucose, a 100 μL sample of blood was taken from the jugular vein. Immediately following blood sampling, a small aliquot of the blood was used to measure the blood glucose concentration using a glucometer (Accu-Check Advantage, Roche) and the remaining blood was stored on ice for 20 minutes and spun down to isolate the serum. Following completion of the IVGTT, the rats were sacrificed with 1:1 mixture of CO2/O2. Tissue samples (brain, muscle, liver, spleen, pancreas, fat) were immediately harvested and flash frozen with liquid nitrogen and stored at −80° C. To homogenize the tissues to obtain a cell extract, tissue were kept frozen while they were ground with a mortal and pestle into a fine powder. 100 mg of the powder was then homogenized in 1 mL of cold lysis buffer (50 mM Tris, 0.5% sodium deoxycholate, 0.1% SDS, 1% nonidet P-40, 1 mM EDTA, 1 mM PMSF, and 1 mM butyl-NAG-thiazoline) using two 10 second pulse on a Jenke and Kunkel Ultra-Turrax tissue homogenizer tissue homogenizer. Tissues were then spun down at 13,000 rpm in a microcentrifuge (eppendrof) to remove the cell debris. The soluble cell extract was then analyzed for levels O-GlcNAc modified proteins using Western blot analysis as described above for the cell studies.

[2] = test system: O-GlcNAc modified proteins in rat tissues; assay: Clearance rate: time course of tissue O-GlcNAc levels in rats after tail vein injection; assay type: in vivo; details: 50 mg kg^−1 tail vein
Procedure: To obtain information for how rapid the inhibitor is cleared from tissues, five 10-week old Sprague-Dawley rats were given a tail vein injection of the inhibitor (50 mg kg^−1). The animals were sacrificed sequentially 3, 7, 24, 27, and 32 hours following the injection. Two additional rats were used as controls. One rat was sacrificed immediately before the others received their injections in order to obtain information about the normal levels of O-GlcNAc modified proteins. Also, one rat was injected with sterilized PBS (pH 7.4) along with the other rats and sacrificed at the end of the experiment (32 hours). Tissue collection, homogenization, and western blot analyses were done in the same matter as described above.

O-GlcNAcase [3] = target: T1, O-GlcNAcase (Homo sapiens, UniProt O60502)
T1 sequence (O60502 1-916): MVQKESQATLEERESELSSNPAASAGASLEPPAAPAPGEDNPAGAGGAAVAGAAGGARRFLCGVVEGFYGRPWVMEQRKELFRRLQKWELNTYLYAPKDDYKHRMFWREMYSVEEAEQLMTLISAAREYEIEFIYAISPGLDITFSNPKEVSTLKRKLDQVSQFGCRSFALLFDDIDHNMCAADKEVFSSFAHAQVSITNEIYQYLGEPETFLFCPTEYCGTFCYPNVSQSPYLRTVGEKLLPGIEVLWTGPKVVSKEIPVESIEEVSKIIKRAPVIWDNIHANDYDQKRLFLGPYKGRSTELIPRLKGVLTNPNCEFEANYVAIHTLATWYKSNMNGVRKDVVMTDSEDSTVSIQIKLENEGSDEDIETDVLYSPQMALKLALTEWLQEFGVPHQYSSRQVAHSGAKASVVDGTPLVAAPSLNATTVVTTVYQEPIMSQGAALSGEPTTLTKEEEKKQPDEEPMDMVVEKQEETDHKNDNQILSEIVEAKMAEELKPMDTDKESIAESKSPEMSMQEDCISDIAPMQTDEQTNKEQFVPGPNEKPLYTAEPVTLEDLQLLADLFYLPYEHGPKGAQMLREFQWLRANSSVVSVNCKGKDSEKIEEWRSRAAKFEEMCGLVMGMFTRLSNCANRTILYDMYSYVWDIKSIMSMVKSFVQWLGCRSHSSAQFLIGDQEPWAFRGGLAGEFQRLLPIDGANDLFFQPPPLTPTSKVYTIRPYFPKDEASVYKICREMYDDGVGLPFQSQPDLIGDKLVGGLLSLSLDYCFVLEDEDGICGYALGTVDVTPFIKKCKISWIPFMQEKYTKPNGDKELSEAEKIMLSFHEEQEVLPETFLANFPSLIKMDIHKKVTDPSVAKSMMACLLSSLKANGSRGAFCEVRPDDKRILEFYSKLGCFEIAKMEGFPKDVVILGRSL

O-GlcNAcase [4] = target: T1, O-GlcNAcase; assay: biochemical
[5] = target: human placental β-hexosaminidase; assay: Inhibition of β-hexosaminidase, substrate MU-GlcNAc (5), Dixon plots; details: read-out: β-Hexosaminidase KI; Table 2; substrate 5 at 0.64 mM, pH 4.25, Dixon plots

discomforts of treated rats compared to the control rat ([1]; tail vein injection): did not appear to show any discomforts | time in which the inhibitor gains access to a wide variety of tissues ([1]; tail vein injection): less than 24 hours | time within which the inhibitor is cleared from the tissues and O-GlcNAc levels return to normal ([2]; brain and muscle): 24 to 32 h | KI for O-GlcNAcase greater than that of parent compound (9a) (O-GlcNAcase [3]): 3 fold | inhibition of O-GlcNAcase, in words (O-GlcNAcase [3]): potent inhibitors | selectivity for O-GlcNAcase over β-hexosaminidase, in words (O-GlcNAcase [3]): remarkable selectivity | selectivity ratio for O-GlcNAcase over β-hexosaminidase (O-GlcNAcase [3]): 1500 fold | Selectivity Ratio (β-Hex KI/O-GlcNAcase KI) (O-GlcNAcase [3]; Table 2): 1500 | Ki (O-GlcNAcase [4]): 0.23 µM | Ki [5]: 340 µM
SMILES: CCCC1=N[C@@H]2[C@@H](O)[C@H](O)[C@@H](CO)O[C@@H]2S1 [Compound 9c, 1,2-dideoxy-2′-propyl-α-D-glucopyranoso-[2,1-d]-2′-thiazoline]
dose enough to elicit the maximal increase in O-GlcNAc modified proteins ([1]; tail vein injection): 50 mg/kg | time for which the inhibitor retains an effect ([1]; tail vein injection): ≥ 6 h | cellular levels of O-GlcNAc modified proteins in brain tissue ([1]; tail vein injection, 50, 120 and 300 mg/kg, compared to controls): marked increases | dose almost enough to elicit a maximal increase in O-GlcNAc levels ([1]; tail vein injection, brain, muscle, liver): ~50 mg/kg | cellular levels of O-GlcNAc modified proteins in brain, 24 hours after injection [2]: dropped | cellular levels of O-GlcNAc modified proteins in brain, seven hours after injection [2]: remained high | cellular levels of O-GlcNAc modified proteins in brain, three hours after injection [2]: marked increases | time after which O-GlcNAc levels return to normal levels ([2]; brain): about 32 hours | time to elevate O-GlcNAc levels in tissues ([2]; brain and muscle): < 3 h
